Laboratory results reported in patent US11192899B2 (MERCK PATENT GMBH, priority 2017, dated 2021).
pIC50: −log10 of the molar value. Read-outs that look alike come from different tables or passages of the source.

Tests used:
Format in all cases: cell-based
human A2A receptor = target: T1, human A2A receptor (Homo sapiens, UniProt P29274); experiment: cAMP HTRF functional assay, recombinant HEK293 cells expressing human A2A receptor, agonist NECA
T1 construct: expressed in transfected cells; host or cells: HEK293
T1 sequence (P29274 whole entry): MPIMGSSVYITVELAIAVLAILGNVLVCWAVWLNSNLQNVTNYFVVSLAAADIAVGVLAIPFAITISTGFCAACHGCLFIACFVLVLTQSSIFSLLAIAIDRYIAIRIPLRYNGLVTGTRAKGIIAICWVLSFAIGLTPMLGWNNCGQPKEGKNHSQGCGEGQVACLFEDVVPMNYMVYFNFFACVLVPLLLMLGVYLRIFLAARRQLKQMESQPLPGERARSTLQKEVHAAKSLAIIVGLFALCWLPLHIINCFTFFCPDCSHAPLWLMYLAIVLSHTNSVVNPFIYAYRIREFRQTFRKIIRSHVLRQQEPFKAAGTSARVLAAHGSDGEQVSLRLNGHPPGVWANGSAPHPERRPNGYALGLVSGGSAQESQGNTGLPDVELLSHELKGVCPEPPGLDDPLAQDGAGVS
Protocol: (§1) The functional activities of human A2A, A2B, A1 and A3 receptors were determined by quantification of cAMP, being the second messenger for adenosine receptors.
(§2) Obtained raw data were normalized against the inhibitor control and the neural control (DMSO) and the normalized data were fitted using GeneData software.

human A1 receptor = target: T2, human A1 receptor (Homo sapiens, UniProt P30542); experiment: cAMP HTRF functional assay, recombinant CHO cells expressing human A1 receptor, forskolin and agonist CPA
T2 construct: expressed in transfected cells; host or cells: CHO
T2 sequence (P30542 1-326): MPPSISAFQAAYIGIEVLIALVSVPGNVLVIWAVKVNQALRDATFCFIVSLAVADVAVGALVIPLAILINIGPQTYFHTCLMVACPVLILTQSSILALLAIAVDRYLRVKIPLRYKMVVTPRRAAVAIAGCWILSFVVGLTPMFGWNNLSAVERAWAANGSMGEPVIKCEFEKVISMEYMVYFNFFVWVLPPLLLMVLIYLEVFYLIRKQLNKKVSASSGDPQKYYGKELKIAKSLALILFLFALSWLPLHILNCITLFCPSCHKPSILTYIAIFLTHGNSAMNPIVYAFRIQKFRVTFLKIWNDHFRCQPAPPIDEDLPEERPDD
Protocol: as §1
For human A1 and A3 receptors, recombinant CHO cells, expressing either A1 or A3-receptor, were used. As both receptors couple to Gi proteins, the assay protocol was adapted:
Cells were seeded into 384-well plates, forskolin, test compounds and agonists (CPA for A1- and IB-MECA for A3-receptor) were added. After 30 min incubation, HTRF reagents (cAMP dynamic 2, Cis Bio) were added and the cellular cAMP levels were determined using the ENVISION (Perkin Elmer) plate reader.
as §2

A2B receptors = target: T3, A2B receptors (Homo sapiens, UniProt P29275); experiment: cAMP HTRF functional assay, recombinant HEK293 cells expressing human A2B receptor, agonist NECA; set-up: expressed in transfected cells; host or cells: HEK293
T3 sequence (P29275 1-332): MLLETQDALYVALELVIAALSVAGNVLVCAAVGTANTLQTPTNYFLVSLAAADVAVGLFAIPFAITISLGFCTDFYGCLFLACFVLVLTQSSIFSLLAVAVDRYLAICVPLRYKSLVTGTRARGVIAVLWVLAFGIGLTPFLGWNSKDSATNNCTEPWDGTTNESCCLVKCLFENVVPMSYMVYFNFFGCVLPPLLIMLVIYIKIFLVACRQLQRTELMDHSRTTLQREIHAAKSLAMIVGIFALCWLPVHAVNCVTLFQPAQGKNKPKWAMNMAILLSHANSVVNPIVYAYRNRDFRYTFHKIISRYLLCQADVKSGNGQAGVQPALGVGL
Protocol: as §1, §2

With “4-Hydroxy-4-methyl-piperidine-1-carboxylic acid (5-methoxy-8-phenyl-pyrido[3,4-b]pyrazin-3-yl)-amide [compound 15]” the pIC50 (human A2A receptor; recombinant HEK293 cells, cAMP, agonist NECA) was over 7.00.
`COc1ccc(C2CCOCC2)c2ncc(NC(=O)N3CC4(C3)CS(=O)(=O)C4)nc12` [compound 18] showed a pIC50 (human A1 receptor) of under 6.00 and a pIC50 (human A2A receptor) of over 7.00.
`COc1ccc(-c2cccc(F)c2)c2ncc(NC(=O)N3CCC(C)(O)CC3)nc12` [compound 62] showed a pIC50 (A2B receptors) of under 6.00, a pIC50 (human A1 receptor) of over 6.00 and a pIC50 (human A2A receptor) of over 7.00.
Work on `COc1ccc(C2CCOCC2)c2ncc(NC(=O)c3cnn(C)c3)nc12` [compound 68] yielded a pIC50 (A2B receptors) of under 6.00, a pIC50 (human A1 receptor) of under 6.00 and a pIC50 (human A2A receptor) of over 8.00.
`COc1ccc(C2CCOCC2)c2ncc(NC(=O)c3cnc(C)s3)nc12` [compound 78] showed a pIC50 (A2B receptors) of over 6.00, a pIC50 (human A1 receptor) of under 6.00 and a pIC50 (human A2A receptor) of over 8.00.
Work on `C#CCC1(O)CCN(C(=O)Nc2cnc3c(C4CCOCC4)cnc(OC)c3n2)CC1` [compound 103, 4-Hydroxy-4-prop-2-ynyl-piperidine-1-carboxylic acid [5-methoxy-8-(tetrahydro-pyran-4-yl)-pyrido[3,4-b]pyrazin-3-yl]-amide] yielded a pIC50 (A2B receptors) of under 6.00, a pIC50 (human A1 receptor) of under 6.00 and a pIC50 (human A2A receptor) of over 8.00.
`COc1ncc(C2CCOCC2)c2ncc(NC(=O)N3CCC(C)(CO)CC3)nc12` [compound 104, 4-Hydroxymethyl-4-methyl-piperidine-1-carboxylic acid [5-methoxy-8-(tetrahydro-pyran-4-yl)-pyrido[3,4-b]pyrazin-3-yl]-amide] was tested, and the pIC50 (human A2A receptor) was over 8.00.
Work on `CCCCc1ccc(OC)c2nc(NC(=O)N3CCC(C)(O)CC3)cnc12` [compound 108, N-(5-butyl-8-methoxyquinoxalin-2-yl)-4-hydroxy-4-methylpiperidine-1-carboxamide] yielded a pIC50 (A2B receptors) of under 6.00, a pIC50 (human A1 receptor) of under 6.00 and a pIC50 (human A2A receptor) of over 7.00.
Molecule `COc1ccc(C2=CCOCC2)c2ncc(NC(=O)N3CCC(C)(O)CC3)nc12` [compound 109, N-[5-(3,6-dihydro-2H-pyran-4-yl)-8-methoxyquinoxalin-2-yl]-4-hydroxy-4-methylpiperidine-1-carboxamide] has a pIC50 (A2B receptors) of under 6.00, a pIC50 (human A1 receptor) of over 6.00 and a pIC50 (human A2A receptor) of over 8.00.
In the case of `COc1ccc(-c2cccnc2)c2nc(NC(=O)N3CCC(C)(O)CC3)cnc12` [compound 112, 4-hydroxy-N-[5-methoxy-8-(pyridin-3-yl)quinoxalin-2-yl]-4-methylpiperidine-1-carboxamide], the pIC50 (human A1 receptor) was under 6.00 and the pIC50 (human A2A receptor) was over 7.00.
For `COc1ccc(-c2cnn(Cc3ccccn3)c2)c2ncc(NC(=O)N3CCC(C)(O)CC3)nc12` [compound 114, 4-hydroxy-N-(8-methoxy-5-{1-[(pyridin-2-yl)methyl]-1H-pyrazol-4-yl}quinoxalin-2-yl)-4-methylpiperidine-1-carboxamide], the pIC50 (A2B receptors) was under 6.00, the pIC50 (human A1 receptor) was over 6.00 and the pIC50 (human A2A receptor) was over 7.00.
Work on `CNC(=O)c1cc(-c2ccc(OC)c3nc(NC(=O)N4CCC(C)(O)CC4)cnc23)ccn1` [compound 115, 4-{2-[(4-hydroxy-4-methylpiperidine-1-carbonyl)amino]-8-methoxyquinoxalin-5-yl}-N-methylpyridine-2-carboxamide] yielded a pIC50 (human A2A receptor) of over 7.00.
For `COc1ccc(-c2cnn(C3CN(C(=O)OC(C)(C)C)C3)c2)c2ncc(NC(=O)N3CCC(C)(O)CC3)nc12` [compound 116, tert-butyl 3-(4-{2-[(4-hydroxy-4-methylpiperidine-1-carbonyl)amino]-8-methoxyquinoxalin-5-yl}-1H-pyrazol-1-yl)azetidine-1-carboxylate], the pIC50 (A2B receptors) was under 6.00, the pIC50 (human A1 receptor) was over 6.00 and the pIC50 (human A2A receptor) was over 7.00.
In the case of `COCCOc1cccc(-c2ccc(OC)c3nc(NC(=O)N4CCC(C)(O)CC4)cnc23)c1` [compound 117, 4-hydroxy-N-{8-methoxy-5-[3-(2-methoxyethoxy)phenyl]quinoxalin-2-yl}-4-methylpiperidine-1-carboxamide], the pIC50 (A2B receptors) was under 6.00, the pIC50 (human A1 receptor) was under 6.00 and the pIC50 (human A2A receptor) was over 7.00.
In the case of `COCCOCCn1cc(-c2ccc(OC)c3nc(NC(=O)N4CCC(C)(O)CC4)cnc23)cn1` [compound 119, 4-hydroxy-N-(8-methoxy-5-{1-[2-(2-methoxyethoxy)ethyl]-1H-pyrazol-4-yl}quinoxalin-2-yl)-4-methylpiperidine-1-carboxamide], the pIC50 (A2B receptors) was under 6.00, the pIC50 (human A1 receptor) was under 6.00 and the pIC50 (human A2A receptor) was over 7.00.
For `COc1ccc(-c2cccc(F)c2F)c2ncc(NC(=O)c3cnc(C)o3)nc12` [compound 125, N-[5-(2,3-difluorophenyl)-8-methoxyquinoxalin-2-yl]-2-methyl-1,3-oxazole-5-carboxamide], the pIC50 (human A1 receptor) was over 6.00 and the pIC50 (human A2A receptor) was over 7.00.
With `COc1ccc(-c2ccccc2F)c2ncc(NC(=O)c3cnc(C)o3)nc12` [compound 129, N-[5-(2-fluorophenyl)-8-methoxyquinoxalin-2-yl]-2-methyl-1,3-oxazole-5-carboxamide] the pIC50 (A2B receptors) was over 7.00 and the pIC50 (human A2A receptor) was over 8.00.
Work on `COc1ccc(C2CCOCC2)c2ncc(NC(=O)c3cnc(C)o3)nc12` [compound 130, N-[8-methoxy-5-(oxan-4-yl)quinoxalin-2-yl]-2-methyl-1,3-oxazole-5-carboxamide] yielded a pIC50 (A2B receptors) of over 7.00, a pIC50 (human A1 receptor) of under 6.00 and a pIC50 (human A2A receptor) of over 8.00.
`COc1ccc(C2=CCOCC2)c2ncc(NC(=O)c3cnc(C)o3)nc12` [compound 132, N-[5-(3,6-dihydro-2H-pyran-4-yl)-8-methoxyquinoxalin-2-yl]-2-methyl-1,3-oxazole-5-carboxamide] showed a pIC50 (A2B receptors) of over 7.00, a pIC50 (human A1 receptor) of over 6.00 and a pIC50 (human A2A receptor) of over 8.00.
In the case of `COc1ccc(C2=CCOCC2)c2ncc(NC(=O)c3cnn(C)c3)nc12` [compound 135, N-[5-(3,6-dihydro-2H-pyran-4-yl)-8-methoxyquinoxalin-2-yl]-1-methyl-1H-pyrazole-4-carboxamide], the pIC50 (A2B receptors) was over 7.00, the pIC50 (human A1 receptor) was over 7.00 and the pIC50 (human A2A receptor) was over 8.00.
`COc1ccc(C2=CCOCC2)c2ncc(NC(=O)C3(N)CC3)nc12` [compound 137, 1-amino-N-[5-(3,6-dihydro-2H-pyran-4-yl)-8-methoxyquinoxalin-2-yl]cyclopropane-1-carboxamide] was tested, and the pIC50 (A2B receptors) was under 6.00, the pIC50 (human A1 receptor) was over 6.00 and the pIC50 (human A2A receptor) was over 8.00.
In the case of `COc1ccc(C2=CCOCC2)c2ncc(NC(=O)c3csc(N)n3)nc12` [compound 139, 2-amino-N-[5-(3,6-dihydro-2H-pyran-4-yl)-8-methoxyquinoxalin-2-yl]-1,3-thiazole-4-carboxamide], the pIC50 (A2B receptors) was under 6.00, the pIC50 (human A1 receptor) was under 6.00 and the pIC50 (human A2A receptor) was over 7.00.
`COc1ccc(C2=CCOCC2)c2ncc(NC(=O)c3ncc(C4CCOC4)s3)nc12` (stereo not drawn) [compound 140, N-[5-(3,6-dihydro-2H-pyran-4-yl)-8-methoxyquinoxalin-2-yl]-5-(oxolan-3-yl)-1,3-thiazole-2-carboxamide] gave a pIC50 (A2B receptors) of over 7.00, a pIC50 (human A1 receptor) of over 6.00 and a pIC50 (human A2A receptor) of over 8.00.
Work on `COc1ccc(C2=CCOCC2)c2ncc(NC(=O)c3coc(CN)c3)nc12` [compound 142, 5-(aminomethyl)-N-[5-(3,6-dihydro-2H-pyran-4-yl)-8-methoxyquinoxalin-2-yl]furan-3-carboxamide] yielded a pIC50 (A2B receptors) of under 6.00, a pIC50 (human A1 receptor) of under 6.00 and a pIC50 (human A2A receptor) of over 8.00.
With `COc1ccc(C2=CCOCC2)c2ncc(NC(=O)C3(C(=O)N(C)C)CC3)nc12` [compound 144, N′1-[5-(3,6-dihydro-2H-pyran-4-yl)-8-methoxyquinoxalin-2-yl]-N1,N1-dimethylcyclopropane-1,1-dicarboxamide] the pIC50 (human A1 receptor) was under 6.00 and the pIC50 (human A2A receptor) was over 7.00.
`COc1ccc(C2=CCOCC2)c2ncc(NC(=O)C3(CN(C)C)CC3)nc12` [compound 145, N-[5-(3,6-dihydro-2H-pyran-4-yl)-8-methoxyquinoxalin-2-yl]-1-[(dimethylamino)methyl]cyclopropane-1-carboxamide] was tested, and the pIC50 (human A1 receptor) was under 6.00 and the pIC50 (human A2A receptor) was over 7.00.
Molecule `COc1ccc(C2=CCOCC2)c2ncc(NC(=O)c3nnc(C)s3)nc12` [compound 146, N-[5-(3,6-dihydro-2H-pyran-4-yl)-8-methoxyquinoxalin-2-yl]-5-methyl-1,3,4-thiadiazole-2-carboxamide] has a pIC50 (human A1 receptor) of under 6.00 and a pIC50 (human A2A receptor) of over 7.00.
Molecule `COc1ccc(-c2cnn(C(F)F)c2)c2ncc(NC(=O)N3CCC(C)(O)CC3)nc12` [compound 158, N-{5-[1-(difluoromethyl)-1H-pyrazol-4-yl]-8-methoxyquinoxalin-2-yl}-4-hydroxy-4-methylpiperidine-1-carboxamide] has a pIC50 (human A1 receptor) of under 6.00 and a pIC50 (human A2A receptor) of over 7.00.
Molecule `COc1ccc(N2CCCOCC2)c2ncc(NC(=O)C3CC3)nc12` [compound 161, N-[8-methoxy-5-(1,4-oxazepan-4-yl)quinoxalin-2-yl]cyclopropanecarboxamide] has a pIC50 (human A1 receptor) of under 6.00 and a pIC50 (human A2A receptor) of over 7.00.
